Laboratory results taken from PubChem BioAssay (NCI).
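Growth conditions: 96-well plates. Treatment: test compound, 48 hours, 5 concentrations. Analysis: linear interpolation between bracketing concentrations; unreached endpoints set to highest concentration. GI50 = concentration required for 50% inhibition of growth. TGI marks complete inhibition of growth.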

Legend:
Test in all cases: NCI tumour cell line growth inhibition, 48 h
HCT-116 colon = system: HCT-116 colon
NCI-H460 lung = system: NCI-H460 lung
TK-10 renal = system: TK-10 renal
RXF 393 renal = system: RXF 393 renal
LOX IMVI melanoma = system: LOX IMVI melanoma
SK-MEL-2 melanoma = system: SK-MEL-2 melanoma
SW-620 colon = system: SW-620 colon
NCI/ADR-RES ovarian = system: NCI/ADR-RES ovarian
U251 CNS = system: U251 CNS
MDA-N = system: MDA-N
NCI-H522 lung = system: NCI-H522 lung

Structure (SMILES)	TGI (HCT-116 colon) [µM]	TGI (NCI-H460 lung) [µM]	TGI (TK-10 renal) [µM]	TGI (RXF 393 renal) [µM]	TGI (LOX IMVI melanoma) [µM]	TGI (SK-MEL-2 melanoma) [µM]	TGI (SW-620 colon) [µM]	TGI (NCI/ADR-RES ovarian) [µM]	TGI (U251 CNS) [µM]	TGI (MDA-N) [µM]	TGI (NCI-H522 lung) [µM]	GI50 (NCI-H460 lung) [µM]	GI50 (TK-10 renal) [µM]	GI50 (RXF 393 renal) [µM]	GI50 (NCI-H522 lung) [µM]	GI50 (LOX IMVI melanoma) [µM]	GI50 (SK-MEL-2 melanoma) [µM]	GI50 (SW-620 colon) [µM]	GI50 (NCI/ADR-RES ovarian) [µM]	GI50 (U251 CNS) [µM]
CC(C)OC(=O)[C@@H](O)[C@H](CO)C1=CC([Si](C)(C)c2ccccc2)=CON1	> 100	> 100	> 100	> 100	> 100	> 100	> 100	> 100	> 100											
COc1ccc(/C=N/NC(=O)c2cnc3[nH]c(=O)n(C)c(=O)c3c2)cc1	> 100	> 100	> 100	> 100		> 100	> 100	> 100	> 100	> 100										
NC1CC(=O)c2sccc21 (stereo not given)	> 100		> 100	> 100		79.3	> 100	> 100	> 100		> 100									
NC(=O)CC(N=C1C(=O)OC(C(O)CO)C1=NC(CC(N)=O)C(=O)O)C(=O)O (stereo not given)	> 100	> 100	> 100	> 100		> 100	> 100	> 100	> 100	> 100	> 100									
O=[N+]([O-])c1c2nc3n(c2cc2c1nc1n2CCC1)CCC3	> 100	> 100	> 100	> 100	> 100		> 100	> 100	> 100	> 100	> 100									
CCCCCCC(C)OC(=O)/C=C(\CC(=O)OC(C)CCCCCC)C(=O)OC(C)CCCCCC (stereo not given)	> 100	> 100	> 100	> 100	> 100	> 100	> 100		> 100		> 100									
c1ccc(C2=NCCc3cc4c(cc32)OCO4)cc1			> 100	> 100	> 100	> 100	> 100	> 100	> 100	> 100	> 100									
CCN(CC)CCCC(C)NC(=O)c1ccc2c(c1)C(=O)c1ccccc1C2=O (stereo not given)	51.7	39.8	66.5	42.8	39.6	38.9	43.1		50.4		37.4									
C=C1C(=O)O[C@@H]2[C@H](O)[C@@H](C)[C@@H]3C=CC(=O)[C@@]3(C)[C@H](OC(=O)C=C(C)C)[C@H]12	1.72	6.02		1.33	2.25	2.84	1.18	6.42	3.5		0.4									
C=C(C)[C@@H]1CCC2=C[C@H](CC(C)=CC3=CC(C)=C(O3)[C@@H]1OC)OC2=O		> 100	> 100	56.9		52.7	> 100	> 100	> 100	> 100	> 100									
O=C1C(NCCN2CCOCC2)=C(Cl)C(=O)c2ncccc21	1.14	1.71	2.78	1.4	0.928	1.11	1.01		2.23	0.346										
Cc1cc2nc(N3C(=O)/C(=C/c4ccc(Cl)cc4)N=C3c3ccccc3)sc2cc1C	53.9	> 100	> 100	57.9	56.2	89.8	> 100	87.3	84.7	30.3										
Oc1ccc(C#CCOc2ccccc2)cc1CNCCN(Cc1ccccn1)Cc1ccccn1		2.38	3.06	2.96	2.79	4.85	4.89	6.68	5.16		6.67	0.538	1.22	1.49	2.07	1.25	2.08	1.86	1.83	0.668
CCN(CC)C(=O)N1CN(c2ccccc2)C2(CCN(CCCSc3ccc(F)cc3)CC2)C1=O	12.9		31.5	29.7	10.7	21	43	83.4	26.8	21.3	30.5									
O=C1ON=C2C3CC4CC12CC1(C3)C(=O)ON=C41	> 100	> 100		> 100	> 100	> 100	> 100	> 100	> 100	> 100	> 100									
O=C1CCCC2=C1CC1=C(CCCC1=O)N2c1ccccc1		> 100	> 100	> 100	> 100		> 100	> 100	> 100											
COC(=O)[C@H](Cc1ccccc1)NP(=O)(O)OCC1C=CC(n2cc(C)c(=O)[nH]c2=O)O1 (stereo not given in full)	> 100	> 100	> 100	> 100	> 100	> 100	> 100	> 100	> 100		> 100									
CC(=O)OCC1OC(O/C=C(\CN=[N+]=[N-])C(C)=O)C(OC(C)=O)C(OC(C)=O)C1OC(C)=O (stereo not given)	13.8	48.9	19.1		17.1	37.2	16.9	> 100	26.8	30	5.08									
COc1cc(C2c3cc4c(cc3[C@@H](Nc3cccc([N+](=O)[O-])c3)C3COC(=O)[C@H]23)OCO4)cc(OC)c1O (stereo not given in full)	21.6	1.72		7.41	19.6	36.5	> 65.4	> 54.2			11.7									
c1ccc(N=C2SC3=NCCN3C2=Nc2ccccc2)cc1	26.8	50.6		32.2		76.5		> 100	33.5	41.2	30.4									
CC(Cc1ccccc1)NC1=NCCO1 (stereo not given)	32.4	36.6		> 100	34.9	> 100	> 100		58	72.3	> 100									

Structure (SMILES)	TGI (HCT-116 colon) [µM]	TGI (NCI-H460 lung) [µM]	TGI (TK-10 renal) [µM]	TGI (RXF 393 renal) [µM]	TGI (LOX IMVI melanoma) [µM]	TGI (SK-MEL-2 melanoma) [µM]	TGI (SW-620 colon) [µM]	TGI (NCI/ADR-RES ovarian) [µM]	TGI (U251 CNS) [µM]	TGI (MDA-N) [µM]	TGI (NCI-H522 lung) [µM]	GI50 (NCI-H460 lung) [µM]	GI50 (TK-10 renal) [µM]	GI50 (RXF 393 renal) [µM]	GI50 (NCI-H522 lung) [µM]	GI50 (LOX IMVI melanoma) [µM]	GI50 (SK-MEL-2 melanoma) [µM]	GI50 (SW-620 colon) [µM]	GI50 (NCI/ADR-RES ovarian) [µM]	GI50 (U251 CNS) [µM]
CC(NC(C#N)CC12CC3CC(CC(C3)C1)C2)c1ccccc1 (stereo not given)	> 100	67.1	> 100		62.7		> 100	> 100	> 100	> 100	> 100									
CSCCC(NC(=O)OCc1ccccc1)NC(=O)OCc1ccccc1	> 100	> 100	> 100		> 100	> 100	> 100	> 100	> 100	> 100	> 100									
O=C1c2ccccc2-c2nc(/C=C/c3ccccc3)cc3c2c1nc1ccccc13	> 100		> 100	> 100		> 100	85.6	> 100	57		30.2									
CC(C)(C)c1ccc(C(C)(C)C)c(N2C(=O)C3ON=C(c4ccc([N+](=O)[O-])cc4)C3C2=O)c1 (stereo not given)	> 25	> 25	> 25	> 25	> 25		> 25	> 25		> 25	> 25									
CCc1nc2ccc(C(F)(F)F)cc2[nH]c1=O	> 100	> 100	> 100	> 100	> 100	> 100	> 100	> 100	> 100	> 100										
O=C1c2ccccc2C(=O)c2c(O)ccc(O)c21	> 100	> 100	> 100	> 100	> 100	> 100	> 100		> 100		> 100									
Cc1ccc(C(=O)Nc2ccc(S(=O)(=O)O)c3cc(S(=O)(=O)O)cc(S(=O)(=O)O)c23)cc1NC(=O)c1cccc(NC(=O)Nc2cccc(C(=O)Nc3cc(C(=O)Nc4ccc(S(=O)(=O)O)c5cc(S(=O)(=O)O)cc(S(=O)(=O)O)c45)ccc3C)c2)c1 (tested in a mixture with another compound)	> 50	> 50		> 50	> 50	> 50	> 50	> 50	> 50	> 50	> 50									
O=[N+]([O-])c1ccc2c(c1)c(S(=O)(=O)O)cc1nonc12	> 100	> 100	> 100		> 100	> 100	> 100	> 100	> 100	> 100	> 100									
CCN(CC)CCCOc1cc2c(cc1OC)C(=O)N1CCC[C@H]1C=N2	> 100	> 100	> 100	60	31.3	> 100	33.2	> 100	> 100		54									
CC1(CC2=C(C(=O)NCCO[Si](C)(C)C(C)(C)C)C3(OCCO3)C2=O)OCCO1	> 100	> 100	> 100		> 100	> 100	> 100	> 100	> 100	> 100	93.7									
CCSc1nc(N)c2c(-c3ccccc3)c3c(nc2n1)CCC3	> 100	> 100	> 100	> 100	> 100		> 100	> 100	> 100	> 100										
Clc1c(C(Cl)(Cl)Cl)nsc1N1CCCCC1	76.6	> 100	> 100	32.3	32.5		> 100		> 100	> 100										
C(=C\c1cc(-c2ccc3ccccc3n2)nc2ccc3ccccc3c12)/c1ccc2ccccc2n1	> 100	> 100	> 100	> 100	> 100		> 100	> 100	> 100	> 100										
C[C@]1(O)O[C@@H]2OCC[C@@H]2C2=C1C(=O)c1ccccc1C2=O		32.8	35.5	27.2	25.2	32	39.8	45.8	29.8	19.1	31.6									
NC(=O)c1nnsc1NC=O	> 100	> 100		> 100	> 100	> 100	> 100	> 100	> 100	> 100	> 100									
CC(=O)/C=C(\O)c1[nH]c(C(=O)O)cc1C1CCN(Cc2ccccc2)C1=O (stereo not given)	61.7	32.3	> 100	30.2		54.9	> 100	28.9	> 100	33.8	49.7									
O=C(OCc1ccccc1)N1CCN(C(=O)OCc2ccccc2)CCN(C(=O)OCc2ccccc2)CCN(C(=O)OCc2ccccc2)CCN(C(=O)OCc2ccccc2)CC1	> 100	> 100	> 100		> 100	> 100	> 100	> 100	> 100	> 100	> 100									
CCN1CCC(O)(c2ccc(Oc3ccc(C)cc3)cc2)C(C(=O)c2ccc(Oc3ccc(C)cc3)cc2)C1 (stereo not given)	19	13.8	20.8	16.2	13.5	35.9	27.7	28.2	23.7	22.6										
c1ccc2c(c1)CC1COc3ccccc3C1O2 (stereo not given)	> 100		> 100		> 100	> 100	> 100	> 100	> 100	> 100	> 100									
c1ccc(-c2cc(-c3cccs3)c(-c3cccs3)o2)cc1	> 100	> 100	> 100	> 100	> 100	> 100	> 100	> 100	> 100	> 100										
CC(=O)OCC1=C(C)C[C@H]([C@@H](COC(C)=O)C2CCC3C4C[C@H]5O[C@]56CC=CC(=O)[C@]6(C)C4CC[C@@]32C)OC1=O (stereo not given in full)	0.3	2.91	19.2	1.12	0.552	1.64	0.322		1.05	0.675	0.592									
